Experimental data taken from ChEMBL document CHEMBL5442219.

Columns and labels:
Conditions in all cases: Compound concentration 10 µM
[1] = target: T1, Alpha-1A adrenergic receptor (Homo sapiens) (UniProt P35348)
T1 sequence (whole entry): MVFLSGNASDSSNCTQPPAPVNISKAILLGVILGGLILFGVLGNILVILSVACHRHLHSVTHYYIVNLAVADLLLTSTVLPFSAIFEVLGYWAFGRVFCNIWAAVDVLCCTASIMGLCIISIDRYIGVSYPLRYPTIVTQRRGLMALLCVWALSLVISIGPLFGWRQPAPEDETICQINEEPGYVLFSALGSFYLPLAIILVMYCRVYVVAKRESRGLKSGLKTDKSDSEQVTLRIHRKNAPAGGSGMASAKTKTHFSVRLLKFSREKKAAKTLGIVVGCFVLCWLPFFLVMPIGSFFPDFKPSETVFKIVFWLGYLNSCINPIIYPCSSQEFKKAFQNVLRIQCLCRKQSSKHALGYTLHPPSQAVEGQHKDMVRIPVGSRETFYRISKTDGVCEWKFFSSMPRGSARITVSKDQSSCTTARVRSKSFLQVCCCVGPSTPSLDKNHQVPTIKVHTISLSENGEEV
Description: PDSP Primary Binding target: ADRA1A - Compounds are tested at 10 uM concentration, plate are incubated at room temperature in the dark for 90 minutes. Reaction are stopped by vacuum filtration onto 0.3% polyethyleneimine soaked filter mats using Filtermate harvester. Scintilation cocktail is then melted onto microwave-dried filters on a hot plate and the radio activity is counted in Microbia counter.

[2] = target: T2, Muscarinic acetylcholine receptor M1 (Homo sapiens) (UniProt P11229)
T2 sequence (whole entry): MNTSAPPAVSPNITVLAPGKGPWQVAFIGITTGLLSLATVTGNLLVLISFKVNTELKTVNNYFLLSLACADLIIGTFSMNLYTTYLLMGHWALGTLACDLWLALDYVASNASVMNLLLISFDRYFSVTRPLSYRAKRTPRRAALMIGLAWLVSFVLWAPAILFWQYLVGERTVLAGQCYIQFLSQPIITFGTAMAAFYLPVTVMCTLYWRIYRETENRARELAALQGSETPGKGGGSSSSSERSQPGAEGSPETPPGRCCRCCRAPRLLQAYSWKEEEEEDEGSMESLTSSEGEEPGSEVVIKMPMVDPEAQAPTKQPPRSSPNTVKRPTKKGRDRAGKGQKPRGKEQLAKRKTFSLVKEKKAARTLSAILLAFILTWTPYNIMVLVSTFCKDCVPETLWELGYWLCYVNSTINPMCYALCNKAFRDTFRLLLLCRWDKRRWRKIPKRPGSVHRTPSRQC
Description: PDSP Primary Binding target: CHRM1 - Compounds are tested at 10 uM concentration, plate are incubated at room temperature in the dark for 90 minutes. Reaction are stopped by vacuum filtration onto 0.3% polyethyleneimine soaked filter mats using Filtermate harvester. Scintilation cocktail is then melted onto microwave-dried filters on a hot plate and the radio activity is counted in Microbia counter.

[3] = target: D(1A) dopamine receptor (Homo sapiens) (UniProt P21728)
Description: PDSP Primary Binding target: DRD1 - Compounds are tested at 10 uM concentration, plate are incubated at room temperature in the dark for 90 minutes. Reaction are stopped by vacuum filtration onto 0.3% polyethyleneimine soaked filter mats using Filtermate harvester. Scintilation cocktail is then melted onto microwave-dried filters on a hot plate and the radio activity is counted in Microbia counter.

[4] = target: D(2) dopamine receptor (Homo sapiens) (UniProt P14416)
Chain of D(2) dopamine receptor (Homo sapiens) (P14416 whole entry): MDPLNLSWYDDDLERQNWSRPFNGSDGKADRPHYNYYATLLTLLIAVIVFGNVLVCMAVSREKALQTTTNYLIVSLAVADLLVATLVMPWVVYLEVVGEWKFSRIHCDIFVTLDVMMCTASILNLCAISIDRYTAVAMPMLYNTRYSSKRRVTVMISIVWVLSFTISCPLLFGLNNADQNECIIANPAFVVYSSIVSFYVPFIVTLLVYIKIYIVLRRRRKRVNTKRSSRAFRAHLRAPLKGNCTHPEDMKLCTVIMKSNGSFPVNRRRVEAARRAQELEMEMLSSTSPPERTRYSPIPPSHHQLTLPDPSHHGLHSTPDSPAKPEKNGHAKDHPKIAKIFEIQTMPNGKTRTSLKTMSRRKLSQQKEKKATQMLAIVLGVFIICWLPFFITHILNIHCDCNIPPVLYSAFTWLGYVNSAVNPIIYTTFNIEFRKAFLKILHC
Description: PDSP Primary Binding target: DRD2 - Compounds are tested at 10 uM concentration, plate are incubated at room temperature in the dark for 90 minutes. Reaction are stopped by vacuum filtration onto 0.3% polyethyleneimine soaked filter mats using Filtermate harvester. Scintilation cocktail is then melted onto microwave-dried filters on a hot plate and the radio activity is counted in Microbia counter.

[5] = target: D(3) dopamine receptor (Homo sapiens) (UniProt P35462)
Chain of D(3) dopamine receptor (Homo sapiens) (P35462 whole entry): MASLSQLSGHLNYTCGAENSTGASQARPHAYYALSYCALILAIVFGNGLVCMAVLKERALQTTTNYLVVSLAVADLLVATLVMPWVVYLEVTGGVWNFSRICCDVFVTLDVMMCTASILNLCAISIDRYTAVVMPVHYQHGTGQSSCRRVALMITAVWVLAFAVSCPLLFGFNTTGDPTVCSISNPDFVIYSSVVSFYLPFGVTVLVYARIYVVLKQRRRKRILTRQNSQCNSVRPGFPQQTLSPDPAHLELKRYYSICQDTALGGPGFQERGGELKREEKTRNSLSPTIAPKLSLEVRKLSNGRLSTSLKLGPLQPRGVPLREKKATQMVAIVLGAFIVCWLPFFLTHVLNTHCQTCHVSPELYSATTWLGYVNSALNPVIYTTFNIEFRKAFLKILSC
Description: PDSP Primary Binding target: DRD3 - Compounds are tested at 10 uM concentration, plate are incubated at room temperature in the dark for 90 minutes. Reaction are stopped by vacuum filtration onto 0.3% polyethyleneimine soaked filter mats using Filtermate harvester. Scintilation cocktail is then melted onto microwave-dried filters on a hot plate and the radio activity is counted in Microbia counter.

[6] = target: Histamine H3 receptor (Homo sapiens) (UniProt Q9Y5N1)
Description: PDSP Primary Binding target: HRH3 - Compounds are tested at 10 uM concentration, plate are incubated at room temperature in the dark for 90 minutes. Reaction are stopped by vacuum filtration onto 0.3% polyethyleneimine soaked filter mats using Filtermate harvester. Scintilation cocktail is then melted onto microwave-dried filters on a hot plate and the radio activity is counted in Microbia counter.

[7] = target: T3, 5-hydroxytryptamine receptor 1A (Homo sapiens) (UniProt P08908)
T3 sequence (whole entry): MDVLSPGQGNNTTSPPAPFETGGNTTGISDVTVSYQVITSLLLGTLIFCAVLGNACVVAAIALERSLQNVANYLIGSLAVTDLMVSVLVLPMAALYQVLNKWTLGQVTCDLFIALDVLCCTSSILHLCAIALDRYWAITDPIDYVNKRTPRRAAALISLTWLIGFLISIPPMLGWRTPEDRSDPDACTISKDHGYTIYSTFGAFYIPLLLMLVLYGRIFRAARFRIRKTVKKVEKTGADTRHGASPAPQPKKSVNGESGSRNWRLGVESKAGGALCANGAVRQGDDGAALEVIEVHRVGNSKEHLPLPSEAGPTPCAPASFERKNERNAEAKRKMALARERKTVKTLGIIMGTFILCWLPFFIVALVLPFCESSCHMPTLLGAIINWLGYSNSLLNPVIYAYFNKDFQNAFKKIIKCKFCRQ
Description: PDSP Primary Binding target: HTR1A - Compounds are tested at 10 uM concentration, plate are incubated at room temperature in the dark for 90 minutes. Reaction are stopped by vacuum filtration onto 0.3% polyethyleneimine soaked filter mats using Filtermate harvester. Scintilation cocktail is then melted onto microwave-dried filters on a hot plate and the radio activity is counted in Microbia counter.

[8] = target: 5-hydroxytryptamine receptor 1B (Homo sapiens) (UniProt P28222)
Chain of 5-hydroxytryptamine receptor 1B (Homo sapiens) (P28222 whole entry): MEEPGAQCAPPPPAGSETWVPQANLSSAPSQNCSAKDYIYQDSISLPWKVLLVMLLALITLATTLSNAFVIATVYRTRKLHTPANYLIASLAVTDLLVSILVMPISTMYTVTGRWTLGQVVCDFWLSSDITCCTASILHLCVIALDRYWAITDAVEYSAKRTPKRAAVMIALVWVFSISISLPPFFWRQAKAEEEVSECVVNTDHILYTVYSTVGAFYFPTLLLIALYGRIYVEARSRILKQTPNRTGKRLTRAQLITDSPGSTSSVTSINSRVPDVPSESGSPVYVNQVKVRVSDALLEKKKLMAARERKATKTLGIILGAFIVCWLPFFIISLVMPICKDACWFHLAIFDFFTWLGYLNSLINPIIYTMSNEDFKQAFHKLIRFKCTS
Description: PDSP Primary Binding target: HTR1B - Compounds are tested at 10 uM concentration, plate are incubated at room temperature in the dark for 90 minutes. Reaction are stopped by vacuum filtration onto 0.3% polyethyleneimine soaked filter mats using Filtermate harvester. Scintilation cocktail is then melted onto microwave-dried filters on a hot plate and the radio activity is counted in Microbia counter.

[9] = target: 5-hydroxytryptamine receptor 1D (Homo sapiens) (UniProt P28221)
Description: PDSP Primary Binding target: HTR1D - Compounds are tested at 10 uM concentration, plate are incubated at room temperature in the dark for 90 minutes. Reaction are stopped by vacuum filtration onto 0.3% polyethyleneimine soaked filter mats using Filtermate harvester. Scintilation cocktail is then melted onto microwave-dried filters on a hot plate and the radio activity is counted in Microbia counter.

[10] = target: 5-hydroxytryptamine receptor 1E (Homo sapiens) (UniProt P28566)
Description: PDSP Primary Binding target: HTR1E - Compounds are tested at 10 uM concentration, plate are incubated at room temperature in the dark for 90 minutes. Reaction are stopped by vacuum filtration onto 0.3% polyethyleneimine soaked filter mats using Filtermate harvester. Scintilation cocktail is then melted onto microwave-dried filters on a hot plate and the radio activity is counted in Microbia counter.

[11] = target: 5-hydroxytryptamine receptor 2A (Homo sapiens) (UniProt P28223)
Chain of 5-hydroxytryptamine receptor 2A (Homo sapiens) (P28223 whole entry): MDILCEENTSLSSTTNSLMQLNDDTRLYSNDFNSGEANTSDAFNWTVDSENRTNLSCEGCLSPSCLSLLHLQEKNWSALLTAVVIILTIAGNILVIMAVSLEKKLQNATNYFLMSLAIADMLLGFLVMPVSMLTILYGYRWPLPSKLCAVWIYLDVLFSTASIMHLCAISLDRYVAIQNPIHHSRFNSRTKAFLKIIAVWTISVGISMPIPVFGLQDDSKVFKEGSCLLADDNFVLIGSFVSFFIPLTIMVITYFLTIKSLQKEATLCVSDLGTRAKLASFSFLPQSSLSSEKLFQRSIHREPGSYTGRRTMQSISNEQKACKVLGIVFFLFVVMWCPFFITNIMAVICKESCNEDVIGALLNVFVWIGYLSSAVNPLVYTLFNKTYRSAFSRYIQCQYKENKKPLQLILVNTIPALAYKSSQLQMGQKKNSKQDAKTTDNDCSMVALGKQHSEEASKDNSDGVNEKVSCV
Description: PDSP Primary Binding target: HTR2A - Compounds are tested at 10 uM concentration, plate are incubated at room temperature in the dark for 90 minutes. Reaction are stopped by vacuum filtration onto 0.3% polyethyleneimine soaked filter mats using Filtermate harvester. Scintilation cocktail is then melted onto microwave-dried filters on a hot plate and the radio activity is counted in Microbia counter.

[12] = target: 5-hydroxytryptamine receptor 2B (Homo sapiens) (UniProt P41595)
Chain of 5-hydroxytryptamine receptor 2B (Homo sapiens) (P41595 whole entry): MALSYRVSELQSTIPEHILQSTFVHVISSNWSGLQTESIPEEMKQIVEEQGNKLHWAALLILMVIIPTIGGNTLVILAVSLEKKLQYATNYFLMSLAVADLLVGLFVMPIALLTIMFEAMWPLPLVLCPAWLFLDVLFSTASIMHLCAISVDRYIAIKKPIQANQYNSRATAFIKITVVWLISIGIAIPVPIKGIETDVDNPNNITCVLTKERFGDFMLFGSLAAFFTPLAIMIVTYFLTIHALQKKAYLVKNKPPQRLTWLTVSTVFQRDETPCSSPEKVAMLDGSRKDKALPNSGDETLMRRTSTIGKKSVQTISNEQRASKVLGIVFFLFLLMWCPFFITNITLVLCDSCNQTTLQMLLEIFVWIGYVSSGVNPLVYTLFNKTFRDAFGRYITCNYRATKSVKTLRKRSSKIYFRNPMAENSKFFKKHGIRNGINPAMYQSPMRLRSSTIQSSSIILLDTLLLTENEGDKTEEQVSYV
Description: PDSP Primary Binding target: HTR2B - Compounds are tested at 10 uM concentration, plate are incubated at room temperature in the dark for 90 minutes. Reaction are stopped by vacuum filtration onto 0.3% polyethyleneimine soaked filter mats using Filtermate harvester. Scintilation cocktail is then melted onto microwave-dried filters on a hot plate and the radio activity is counted in Microbia counter.

[13] = target: 5-hydroxytryptamine receptor 5A (Homo sapiens) (UniProt P47898)
Description: PDSP Primary Binding target: HTR5A - Compounds are tested at 10 uM concentration, plate are incubated at room temperature in the dark for 90 minutes. Reaction are stopped by vacuum filtration onto 0.3% polyethyleneimine soaked filter mats using Filtermate harvester. Scintilation cocktail is then melted onto microwave-dried filters on a hot plate and the radio activity is counted in Microbia counter.

[14] = target: 5-hydroxytryptamine receptor 7 (Homo sapiens) (UniProt P34969)
Chain of 5-hydroxytryptamine receptor 7 (Homo sapiens) (P34969 whole entry): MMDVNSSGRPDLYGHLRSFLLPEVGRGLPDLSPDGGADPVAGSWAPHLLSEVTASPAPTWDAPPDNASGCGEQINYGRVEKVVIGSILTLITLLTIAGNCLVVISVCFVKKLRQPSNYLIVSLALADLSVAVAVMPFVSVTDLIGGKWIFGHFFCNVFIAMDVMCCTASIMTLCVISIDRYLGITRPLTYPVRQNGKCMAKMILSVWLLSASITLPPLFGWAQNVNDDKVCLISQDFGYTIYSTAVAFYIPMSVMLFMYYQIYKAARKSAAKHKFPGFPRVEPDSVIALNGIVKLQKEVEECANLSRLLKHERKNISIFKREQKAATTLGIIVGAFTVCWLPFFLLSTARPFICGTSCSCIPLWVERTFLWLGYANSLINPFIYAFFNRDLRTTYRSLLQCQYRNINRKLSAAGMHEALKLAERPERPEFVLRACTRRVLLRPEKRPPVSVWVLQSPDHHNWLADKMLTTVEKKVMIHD
Description: PDSP Primary Binding target: HTR7 - Compounds are tested at 10 uM concentration, plate are incubated at room temperature in the dark for 90 minutes. Reaction are stopped by vacuum filtration onto 0.3% polyethyleneimine soaked filter mats using Filtermate harvester. Scintilation cocktail is then melted onto microwave-dried filters on a hot plate and the radio activity is counted in Microbia counter.

[15] = target: Mu-type opioid receptor (Homo sapiens) (UniProt P35372)
Chain of Mu-type opioid receptor (Homo sapiens) (P35372 whole entry): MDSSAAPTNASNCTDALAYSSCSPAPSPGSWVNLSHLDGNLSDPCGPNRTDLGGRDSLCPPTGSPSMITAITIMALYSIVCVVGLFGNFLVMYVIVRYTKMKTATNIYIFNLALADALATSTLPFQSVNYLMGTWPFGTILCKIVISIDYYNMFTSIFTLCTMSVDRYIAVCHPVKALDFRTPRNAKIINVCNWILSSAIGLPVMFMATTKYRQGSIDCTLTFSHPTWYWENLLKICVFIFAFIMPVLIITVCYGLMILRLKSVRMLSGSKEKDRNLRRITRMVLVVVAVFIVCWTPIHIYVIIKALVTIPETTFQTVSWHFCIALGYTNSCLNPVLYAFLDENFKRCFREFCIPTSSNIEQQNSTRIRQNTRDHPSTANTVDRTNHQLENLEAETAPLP
Description: PDSP Primary Binding target: OPRM1 - Compounds are tested at 10 uM concentration, plate are incubated at room temperature in the dark for 90 minutes. Reaction are stopped by vacuum filtration onto 0.3% polyethyleneimine soaked filter mats using Filtermate harvester. Scintilation cocktail is then melted onto microwave-dried filters on a hot plate and the radio activity is counted in Microbia counter.

[16] = target: Sigma non-opioid intracellular receptor 1 (Homo sapiens) (UniProt Q99720)
Chain of Sigma non-opioid intracellular receptor 1 (Homo sapiens) (Q99720 whole entry): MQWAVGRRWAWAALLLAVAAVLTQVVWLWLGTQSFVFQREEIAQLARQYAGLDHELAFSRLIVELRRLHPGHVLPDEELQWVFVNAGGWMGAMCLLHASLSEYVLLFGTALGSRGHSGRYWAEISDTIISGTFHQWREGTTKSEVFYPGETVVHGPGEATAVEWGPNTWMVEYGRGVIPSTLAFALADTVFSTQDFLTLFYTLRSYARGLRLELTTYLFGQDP
Description: PDSP Primary Binding target: SIGMAR1 - Compounds are tested at 10 uM concentration, plate are incubated at room temperature in the dark for 90 minutes. Reaction are stopped by vacuum filtration onto 0.3% polyethyleneimine soaked filter mats using Filtermate harvester. Scintilation cocktail is then melted onto microwave-dried filters on a hot plate and the radio activity is counted in Microbia counter.

[17] = target: Sodium-dependent dopamine transporter (Homo sapiens) (UniProt Q01959)
Chain of Sodium-dependent dopamine transporter (Homo sapiens) (Q01959 whole entry): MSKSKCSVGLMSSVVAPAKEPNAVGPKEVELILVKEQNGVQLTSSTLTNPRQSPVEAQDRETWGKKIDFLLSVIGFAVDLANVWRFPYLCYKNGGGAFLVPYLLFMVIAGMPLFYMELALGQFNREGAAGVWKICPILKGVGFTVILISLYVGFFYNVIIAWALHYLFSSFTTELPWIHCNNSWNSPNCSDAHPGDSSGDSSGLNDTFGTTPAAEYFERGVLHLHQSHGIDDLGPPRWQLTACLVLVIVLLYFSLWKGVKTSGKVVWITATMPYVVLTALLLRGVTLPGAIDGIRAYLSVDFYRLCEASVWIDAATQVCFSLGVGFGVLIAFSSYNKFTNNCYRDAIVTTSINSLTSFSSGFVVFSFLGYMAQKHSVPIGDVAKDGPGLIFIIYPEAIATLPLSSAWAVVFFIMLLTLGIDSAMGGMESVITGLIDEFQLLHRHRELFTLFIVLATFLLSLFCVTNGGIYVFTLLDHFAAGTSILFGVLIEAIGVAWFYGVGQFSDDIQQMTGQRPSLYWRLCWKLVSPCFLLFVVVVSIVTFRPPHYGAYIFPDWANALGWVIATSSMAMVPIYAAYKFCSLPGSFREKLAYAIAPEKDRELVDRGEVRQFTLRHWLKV
Description: PDSP Primary Binding target: SLC6A3 - Compounds are tested at 10 uM concentration, plate are incubated at room temperature in the dark for 90 minutes. Reaction are stopped by vacuum filtration onto 0.3% polyethyleneimine soaked filter mats using Filtermate harvester. Scintilation cocktail is then melted onto microwave-dried filters on a hot plate and the radio activity is counted in Microbia counter.

[18] = target: Sodium-dependent serotonin transporter (Homo sapiens) (UniProt P31645)
Chain of Sodium-dependent serotonin transporter (Homo sapiens) (P31645 whole entry, looked up): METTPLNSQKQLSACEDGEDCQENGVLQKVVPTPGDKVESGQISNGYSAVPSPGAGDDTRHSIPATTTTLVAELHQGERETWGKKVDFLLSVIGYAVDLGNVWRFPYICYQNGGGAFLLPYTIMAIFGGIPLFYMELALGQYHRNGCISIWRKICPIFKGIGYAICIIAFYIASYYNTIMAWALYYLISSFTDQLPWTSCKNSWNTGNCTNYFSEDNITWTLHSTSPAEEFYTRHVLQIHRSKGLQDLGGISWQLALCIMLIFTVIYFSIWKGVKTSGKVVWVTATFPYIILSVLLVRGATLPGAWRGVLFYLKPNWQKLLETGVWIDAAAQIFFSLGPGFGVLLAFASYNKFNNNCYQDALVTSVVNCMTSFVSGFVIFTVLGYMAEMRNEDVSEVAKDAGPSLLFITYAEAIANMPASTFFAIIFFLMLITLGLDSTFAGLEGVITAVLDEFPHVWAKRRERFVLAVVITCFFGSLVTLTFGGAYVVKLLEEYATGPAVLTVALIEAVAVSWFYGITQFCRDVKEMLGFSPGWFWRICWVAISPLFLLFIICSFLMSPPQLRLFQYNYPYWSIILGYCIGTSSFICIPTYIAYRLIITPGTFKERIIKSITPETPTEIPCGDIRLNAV
Description: PDSP Primary Binding target: SLC6A4 - Compounds are tested at 10 uM concentration, plate are incubated at room temperature in the dark for 90 minutes. Reaction are stopped by vacuum filtration onto 0.3% polyethyleneimine soaked filter mats using Filtermate harvester. Scintilation cocktail is then melted onto microwave-dried filters on a hot plate and the radio activity is counted in Microbia counter.

[19] = target: Sigma intracellular receptor 2 (Homo sapiens) (UniProt Q5BJF2)
Chain of Sigma intracellular receptor 2 (Homo sapiens) (Q5BJF2 whole entry): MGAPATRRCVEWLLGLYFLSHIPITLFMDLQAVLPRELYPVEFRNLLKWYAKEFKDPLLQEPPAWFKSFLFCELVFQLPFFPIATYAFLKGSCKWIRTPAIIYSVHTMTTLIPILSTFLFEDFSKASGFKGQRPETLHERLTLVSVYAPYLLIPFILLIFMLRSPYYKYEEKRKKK
Description: PDSP Primary Binding target: TMEM97 - Compounds are tested at 10 uM concentration, plate are incubated at room temperature in the dark for 90 minutes. Reaction are stopped by vacuum filtration onto 0.3% polyethyleneimine soaked filter mats using Filtermate harvester. Scintilation cocktail is then melted onto microwave-dried filters on a hot plate and the radio activity is counted in Microbia counter.

[20] = target: T4, 5-hydroxytryptamine receptor 2C (Homo sapiens) (UniProt P28335)
T4 sequence (whole entry): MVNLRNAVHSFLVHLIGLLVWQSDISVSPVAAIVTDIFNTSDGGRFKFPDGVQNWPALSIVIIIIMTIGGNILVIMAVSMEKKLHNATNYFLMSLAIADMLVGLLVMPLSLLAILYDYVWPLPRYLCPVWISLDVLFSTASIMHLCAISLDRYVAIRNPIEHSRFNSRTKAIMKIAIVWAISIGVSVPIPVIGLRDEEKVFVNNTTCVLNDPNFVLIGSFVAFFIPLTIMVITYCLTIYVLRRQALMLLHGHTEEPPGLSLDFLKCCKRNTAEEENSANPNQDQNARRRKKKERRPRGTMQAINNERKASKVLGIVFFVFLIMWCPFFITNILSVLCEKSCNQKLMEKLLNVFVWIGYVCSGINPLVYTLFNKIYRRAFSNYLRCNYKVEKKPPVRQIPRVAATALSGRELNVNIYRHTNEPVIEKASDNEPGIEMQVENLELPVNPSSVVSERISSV
Description: PDSP Primary Binding target: HTR2C - Compounds are tested at 10 uM concentration, plate are incubated at room temperature in the dark for 90 minutes. Reaction are stopped by vacuum filtration onto 0.3% polyethyleneimine soaked filter mats using Filtermate harvester. Scintilation cocktail is then melted onto microwave-dried filters on a hot plate and the radio activity is counted in Microbia counter.

**Q.** How did the inhibition [1] turn out when `NCCc1cn(S(=O)(=O)c2c(Cl)nc3sccn23)c2ccccc12` was run?
**A.** 57.5%

**Q.** And the inhibition [2]?
**A.** 38.9%

**Q.** What about the inhibition [3] of the same compound?
**A.** 41.2%

**Q.** What about the inhibition [4] of the same compound?
**A.** 42.1%

**Q.** And the inhibition [5]?
**A.** 32%

**Q.** What about the inhibition [6] of the same compound?
**A.** 55.7%

**Q.** What about the inhibition [7] of the same compound?
**A.** 16.6%

**Q.** What about the inhibition [8] of the same compound?
**A.** 82.5%

**Q.** And the inhibition [9]?
**A.** 81.9%

**Q.** And the inhibition [10]?
**A.** 23.3%

**Q.** And the inhibition [11]?
**A.** 94.2%

**Q.** What about the inhibition [12] of the same compound?
**A.** 98.3%

**Q.** What about the inhibition [13] of the same compound?
**A.** 28.4%

**Q.** What about the inhibition [14] of the same compound?
**A.** 66.9%

**Q.** And the inhibition [15]?
**A.** 16.8%

**Q.** What about the inhibition [16] of the same compound?
**A.** 78.7%

**Q.** And the inhibition [17]?
**A.** 67.9%

**Q.** And the inhibition [18]?
**A.** 40.4%

**Q.** What about the inhibition [19] of the same compound?
**A.** 82.9%

**Q.** Which inhibition [1] does the source give for `CN1CCN(c2ccc(Nc3c4ccccc4nc4ccccc34)cc2)CC1` here?
**A.** 50.9%

**Q.** And the inhibition [2]?
**A.** 51.2%

**Q.** And the inhibition [4]?
**A.** -0.18%

**Q.** What about the inhibition [5] of the same compound?
**A.** -2.42%

**Q.** What about the inhibition [6] of the same compound?
**A.** 82.6%

**Q.** What about the inhibition [7] of the same compound?
**A.** 8.52%

**Q.** And the inhibition [8]?
**A.** 30.3%

**Q.** And the inhibition [9]?
**A.** 54.3%

**Q.** What about the inhibition [10] of the same compound?
**A.** 46.2%

**Q.** What about the inhibition [11] of the same compound?
**A.** 5.02%

**Q.** And the inhibition [12]?
**A.** 36.1%

**Q.** What about the inhibition [20] of the same compound?
**A.** 16.7%

**Q.** And the inhibition [13]?
**A.** 20.3%

**Q.** And the inhibition [14]?
**A.** 84.4%

**Q.** What about the inhibition [15] of the same compound?
**A.** 12.4%

**Q.** And the inhibition [16]?
**A.** 86.4%

**Q.** And the inhibition [17]?
**A.** 62.7%

**Q.** And the inhibition [18]?
**A.** 87.7%

**Q.** What about the inhibition [19] of the same compound?
**A.** 70.8%

**Q.** `Cc1nn(C)c(C)c1-c1cccc2c1CC[C@H](N(C)C)C2` was tested. Which inhibition [1] did it give?
**A.** 15.3%

**Q.** What about the inhibition [2] of the same compound?
**A.** 29.3%

**Q.** And the inhibition [3]?
**A.** 19.8%

**Q.** And the inhibition [4]?
**A.** 32.7%

**Q.** And the inhibition [5]?
**A.** -2.85%

**Q.** And the inhibition [7]?
**A.** 51.8%

**Q.** What about the inhibition [8] of the same compound?
**A.** 91.5%

**Q.** What about the inhibition [9] of the same compound?
**A.** 95.6%

**Q.** And the inhibition [10]?
**A.** 47.5%

**Q.** What about the inhibition [12] of the same compound?
**A.** 84.9%

**Q.** What about the inhibition [20] of the same compound?
**A.** 13.1%

**Q.** And the inhibition [13]?
**A.** 87.1%

**Q.** And the inhibition [14]?
**A.** 94.1%

**Q.** What about the inhibition [15] of the same compound?
**A.** 14.6%

**Q.** What about the inhibition [16] of the same compound?
**A.** 102%

**Q.** And the inhibition [17]?
**A.** 37.9%

**Q.** What about the inhibition [18] of the same compound?
**A.** 3.62%

**Q.** What about the inhibition [19] of the same compound?
**A.** 79.1%

**Q.** `CCc1cc2c(cc1CC)CC(NC[C@H](O)c1ccc(O)c3[nH]c(=O)ccc13)C2` was tested. Which inhibition [1] did it give?
**A.** 84.1%

**Q.** And the inhibition [2]?
**A.** -6.02%

**Q.** And the inhibition [3]?
**A.** 11.9%

**Q.** What about the inhibition [4] of the same compound?
**A.** -7.35%

**Q.** And the inhibition [5]?
**A.** 58.8%

**Q.** And the inhibition [7]?
**A.** 1.29%

**Q.** What about the inhibition [8] of the same compound?
**A.** 34.4%

**Q.** And the inhibition [9]?
**A.** 118%

**Q.** What about the inhibition [10] of the same compound?
**A.** -6.64%

**Q.** What about the inhibition [11] of the same compound?
**A.** 61.1%

**Q.** What about the inhibition [12] of the same compound?
**A.** 92.6%

**Q.** And the inhibition [20]?
**A.** 66.8%

**Q.** What about the inhibition [13] of the same compound?
**A.** 6.33%

**Q.** What about the inhibition [14] of the same compound?
**A.** -0.79%

**Q.** What about the inhibition [15] of the same compound?
**A.** 21%

**Q.** And the inhibition [16]?
**A.** -7.63%

**Q.** And the inhibition [17]?
**A.** 83.1%

**Q.** What about the inhibition [18] of the same compound?
**A.** 52.9%

**Q.** And the inhibition [19]?
**A.** 96.5%
